Assay in all cases: Test of plant growth inhibiting action on sprouted seeds grown 7 days in a dispersion of wettable powder, visual evaluation
Holding throughout (type): in vivo

For one assay, the system named is Echinochloa crus-galli. The conditions noted are these: 168 h, 20% wettable powder dispersed in water, 25°C, lighted thermostat, visual grade 1-5, read-out: Growth Inhibition, Seed of Plant Echinochloa crus-galli (converted). The text has this: (§1) Test Example (Test of Plant Growth Inhibiting Action)
(§2) 50 parts of talc, 25 parts of bentonite, 2 parts of Sorpol-9047 (surface active agent manufactured by Toho Chemical Co., Ltd.) and 3 parts of Sorpol-5039 (same as above) were thoroughly mixed to form a carrier. 50 weight parts of test compound was mixed with 200 weight parts of the carrier to prepare a 20% wettable powder. The wettable powder was dispersed in pure water to adjust the amount thereof to a definite concentration (see Table If to 17). Seeds of Oryza sativa or rice plant, Echinochloa crus-galli (a kind of millet) and Raphanus sativus (a kind of radish) all of which were forcedly sprouted in a separate dish, were put in the dispersion of wettable powder and grown for 7 days in a lighted thermostat at 25°C and the degree of growth was visually evaluated in accordance with the standard set forth below.
(§3) Standard of Evaluation in Growth Inhibition
(§4) • no influence: 1 • about 25% growth inhibition: 2 • about 50% growth inhibition: 3 • about 75% growth inhibition: 4 • about 100% growth inhibition: 5

The subject of a further assay is Oryza sativa. To be noted: 168 h, 20% wettable powder dispersed in water, 25°C, lighted thermostat, visual grade 1-5, read-out: Growth Inhibition, Seed of Plant Oryza sativa (converted).
From the text: as §1, §2, §3, §4

The test system of another assay is Raphanus sativus. The conditions noted are these: 168 h, 20% wettable powder dispersed in water, 25°C, lighted thermostat, visual grade 1-5, read-out: Growth Inhibition, Seed of Plant Raphanus sativus (converted).
From the text: as §1, §2, §3, §4

The values that follow come from EP0117412A1, “Propene derivatives and their use as plant growth inhibitors” (DAICEL CHEMICAL INDUSTRIES, LTD., priority 1983, dated 1984).

`C=C(COc1ccc(C=Cc2ccccc2)cc1)C(=O)OC` [Compound 4-28]: the inhibition – broadly, the share of the control response that was lost under treatment – at 20 ppm with Echinochloa crus-galli (Concentration 20 ppm) is 75%; in the assay on Oryza sativa (Concentration 20 ppm) it was 25%; with Raphanus sativus (Concentration 20 ppm), 0%. For the same compound, the inhibition at 100 ppm with Echinochloa crus-galli (Concentration 100 ppm) is 75%; in the assay on Oryza sativa (Concentration 100 ppm), 25%; in the assay with Raphanus sativus (Concentration 100 ppm) it was 0%.
